According to patent US8455639B2, “Crystalline form of an organic compound” (Sandoz AG, priority 2008, dated 2013):

How the values were obtained:
[1] = Hygroscopicity: water uptake on stepwise increase/decrease of relative humidity; assay type: physicochemical; conditions: for water uptake: value at end of the one hour storage period
Procedure: In these experiments humidity was increased/decreased stepwise. Starting at 0% relative humidity every one hour the humidity level was increased by 10% relative humidity. The gain/loss of weight was recorded continuously. The values given represent the value at the end of the one hour storage period at the indicated relative humidity level.
This water is easily lost, e.g. by storage at a relative humidity of 60% or less.

[2] = Storage stability at ambient temperature, measured by HPLC (stability and purity test); assay type: physicochemical; conditions: samples stored for 4 months at ambient temperature
Procedure: Stability and Purity Test:
Apparatus: Agilent 11 Series • Column: YMC-Pro C18; 150×4,6 mm, S-5 μm, 120A • Eluent: mobile phase A: 3.884 g of amidosulfonic acid in 1000 g of water; mobile phase B: 3.884 g of amidosulfonic acid in 250 g of water and 588 g of acetonitrile.
Measurement at a wavelength of 220 nm; injection volume 7 μl, oven temperature 40° C., Flow 1.0 ml/min
Sample preparation: approximately 10 mg of a sample of the crystalline form of alogliptin free base are dissolved in 10 ml of acetonitrile and the solution is filled up to 25 ml with water
Run time 20 min • Gradient: […]

hygroscopicity ([1]; in words): low hygroscopicity
water uptake ([1]; stored at about 25° C. for 60 min at a relative humidity of 50%): about 0.4 % w/w
water uptake ([1]; stored at about 90% relative humidity at about 25° C. for 60 min): about 1.6 % w/w
degradation (chemical stability) [2]: no degradation
Structure (SMILES): Cn1c(=O)cc(N2CCC[C@@H](N)C2)n(Cc2ccccc2C#N)c1=O [2-[6-[3(R)-aminopiperidin-1-yl]-3-methyl-2,4-dioxo-1,2,3,4-tetrahydropyrimidin-1-ylmethyl]-benzonitrile]
change in crystal structure / formation of a hydrated form ([1]; exposed to extremely high relative humidity): No change in crystal structure nor the formation of a hydrated form
